Laboratory results from EP1691802B1, “METHODS FOR THE AMELIORATION OF ENVIRONMENTAL OXIDANT STRESS AND THE REGULATION OF BENEFICIAL GENES” (The Ester C Company, priority 2003, dated 2005).

Tested on: white blood cells
Parameters: species or system human
Conditions: in vivo, po
Procedure: Three vitamin C preparations and a placebo were tested to determine white blood cell bioavailability and pharmacokinetics in a double-blind, randomized, crossover study in human subjects. The three vitamin C and placebo compositions were • "Test A": ascorbic acid USP • "Test B": a mineral ascorbate (calcium ascorbate) + vitamin C metabolites (principally calcium threonate), in which the metabolites are produced in situ by a process such as disclosed in US Patent 4,822,816 • "Test C": a mineral ascorbate (calcium ascorbate) + vitamin C metabolites (calcium threonate), manufactured by adding calcium threonate to calcium ascorbate. • "Test D": placebo All three vitamin C compositions were standardized to 1000mg vitamin C equivalent per dose tablets.
A total of 15 subjects (all male between the ages of 21 and 50) were divided into three groups of five and were entered into a four-way crossover design study to minimize inter-subject variability, i.e., in which the subjects act as their own controls. […]
Vitamin C levels of the urine, plasma and white blood cells were determined by HPLC. The areas under the curve (AUC) for the ascorbic acid levels detected in white cells, plasma and urine was determined for each group using the trapezoidal rule (Selby, 1979). The data and the standard deviation was analyzed using repeated-measures analysis of variance ([…]). […]

O=C1O[C@H]([C@@H](O)CO)C(O)=C1O [Test A, ascorbic acid]
levels of white cell vitamin C in smokers: lowest levels
